The subject of test [1] is C. auris strain AR Bank #390 (L). Put plainly: MIC determination by in vitro antifungal assay. The conditions noted are these: Candidozyma auris, C. auris AR Bank # 390 (L) (Table 2B); read-out: MIC. It counts as cell-based, Candida auris. As to the method: (§1) The antifungal agent amphotericin B (AmB) was purchased from VWR (Radnor PA, USA). AmB was dissolved in DMSO at a final concentration of 5 mg/mL and was stored at −20° C., protected from light. Candida albicans American Type Culture Collection (ATCC) 10231 (strain A), C. albicans ATCC 64124 (B), and C. albicans ATCC MYA-2876 (C) were obtained from Utah State University. C. albicans ATCC 90819 (D), C. albicans ATCC MYA-2310 (E), C. albicans ATCC MYA-1237 (F), C. albicans ATCC MYA-1003 (G), Candida glabrata ATCC 2001 (H), Candida krusei ATCC 6258 (I), Candida parapsilosis ATCC 22019 (J), Cryptococcus neoformans ATCC MYA-895 (M), Aspergillus terreus ATCC MYA-3633 (N), and Aspergillus flavus ATCC MYA-3631 (0) were obtained from the American Type Culture Collection (ATCC; Manassas, VA, USA). Aspergillus nidulans ATCC 38163 (P) was obtained from University of Kentucky. Clinically derived Aspergillus fumigatus NRRL 163 (Q), A. fumigatus NRRL 5109 (R), and A. fumigatus NRRL 6113 (S) were obtained from Northern Regional Research Laboratory (NRRL). Candida auris 384 (K), C. auris 390 (L), and fungal strains 381-400 (including 10 C. auris (AR Bank #381-390), 3 Candida duobushaemulonii (AR Bank #391, AR Bank #392, and AR Bank #394), 2 Candida haemulonii (AR Bank #393 and AR Bank #395), 1 Kodameae ohmeri (AR Bank #396), 1 C. krusei (AR Bank #397), 1 Candida lusitaniae (AR Bank #398), and 2 Saccharomyces cerevisiae strains (AR Bank #399 and AR Bank #400)) were part of a larger fungal library from the AR Bank maintained by the Centers for Disease Control and Prevention (CDC; Atlanta, GA, USA). Filamentous fungi and yeasts were cultivated at 35° C. in RPMI 1640 medium (with L-glutamine, without sodium bicarbonate, Sigma-Aldrich, St. Louis, MO) buffered to a pH of 7.0 with 0.165 M morpholinepropanesulfonic acid (MOPS) buffer (Sigma-Aldrich). For cytotoxicity assays, HepG2 and the mouse macrophage cell line J774A.1 were obtained from University of Kentucky. The human embryonic kidney cell line, HEK-293, was bought from the ATCC. Mammalian cells were grown in Dulbecco's Modified Eagle's Medium (DMEM) (from VWR) with 10% fetal bovine serum (FBS) (from VWR) and 1% Pen/Strep (from ATCC). Cell lines were cultured at 37° C. with 5% CO2 and passaged by trypsinization with 0.05% trypsin: 0.53 mM EDTA (from Sigma-Aldrich).
(§2) From the actively growing yeast culture, 100 µL were then transferred to 900 μL of RPMI 1640 medium and re-adjusted to achieve OD600 of 0.12 (˜1×10^6 CFU/mL). The cell suspension was further diluted to achieve 1:100 in RPMI 1640 medium.
(§3) Finally, the activity of these monohydrazides was explored against […] non-Candida strains: Cryptococcus neoformans ATCC MYA-895 (M), Aspergillus terreus ATCC MYA-3633 (N), Aspergillus flavus ATCC MYA-3631 (O), Aspergillus nidulans ATCC 38163 (P), Aspergillus fumigatus NRRL 163 (Q), A. fumigatus NRRL 5109 (R), and A. fumigatus NRRL 6113 (S) (Tables 1A and 1B). The double dilution method was used with concentrations ranging from 0.06 to 31.3 j·tg mL^−1 for monohydrazides 1a-9j, and the commercially available positive antifungal control amphotericin B (AmB).

The test system of test [2] is panel of ten C. auris strains (AR Bank #381-390). Put plainly: MIC determination, summary over the C. auris panel. It counts as cell-based, Candida auris. The conditions noted are these: Candidozyma auris; against all ten C. auris strains tested (AR Bank #381-390). As for the experimental part:
as §1, §2

Test [3] relates to Candida auris strain AR Bank #384 (K). As to the kind of experiment: MIC determination by in vitro antifungal assay. It counts as cell-based. The conditions noted are these: Candidozyma auris, C. auris AR Bank # 384 (K) (Table 2B); read-out: MIC. As for the experimental part:
as §1, §2, §3

Test [4] has as its system C. auris AR Bank #388. As to the kind of experiment: MIC determination by in vitro antifungal assay. Format: cell-based, Candida auris. The conditions noted are these: Candidozyma auris; C. auris AR Bank # 388 (Table 2B); read-out: MIC. As to the method: as §1, §2
Test [5] deals with C. auris AR Bank #386. Put plainly: MIC determination by in vitro antifungal assay. Format: cell-based, Candida auris. The conditions noted are these: Candidozyma auris; C. auris AR Bank # 386 (Table 2B); read-out: MIC. As to the method:
as §1, §2

The subject of test [6] is C. auris AR Bank #381. As to the kind of experiment: MIC determination by in vitro antifungal assay. Format: cell-based, Candida auris. To be noted: Candidozyma auris; C. auris AR Bank # 381 (Table 2B); read-out: MIC. As for the experimental part:
as §1, §2

The subject of test [7] is C. auris AR Bank #382. As to the kind of experiment: MIC determination by in vitro antifungal assay. The conditions noted are these: Candidozyma auris; C. auris AR Bank # 382 (Table 2B); read-out: MIC. Format: cell-based, Candida auris. As to the method:
as §1, §2

Test [8] concerns C. auris AR Bank #387. As to the kind of experiment: MIC determination by in vitro antifungal assay. Format: cell-based, Candida auris. The conditions noted are these: Candidozyma auris; C. auris AR Bank # 387 (Table 2B); read-out: MIC. As to the method: as §1, §2
The subject of test [9] is C. auris AR Bank #389. As to the kind of experiment: MIC determination by in vitro antifungal assay. It counts as cell-based, Candida auris. The conditions noted are these: Candidozyma auris; C. auris AR Bank # 389 (Table 2B); read-out: MIC. As to the method: as §1, §2
Test [10] relates to C. auris AR Bank #383. Put plainly: MIC determination by in vitro antifungal assay. It counts as cell-based, Candida auris. To be noted: Candidozyma auris; C. auris AR Bank # 383 (Table 2B); read-out: MIC. As for the experimental part: as §1, §2
Test [11] has as its system C. auris AR Bank #385. As to the kind of experiment: MIC determination by in vitro antifungal assay. It counts as cell-based, Candida auris. The conditions noted are these: Candidozyma auris; C. auris AR Bank # 385 (Table 2B); read-out: MIC. As to the method: as §1, §2

≈ marks a conversion by molar mass, not a printed value.

What is called MIC is the smallest concentration in the dilution series that meets the test's criterion for growth inhibition. With `COc1cccc(NNC(=O)c2cccc(F)n2)c1` [Compound 5c], the MIC is 3.9 µg/mL (≈ 14.9 µM) in test [1]; 0.12 to 7.8 µg/mL (≈ 0.459 to 29.9 µM) in [2]; 0.49 µg/mL (≈ 1.88 µM) in test [3]; 0.98 µg/mL (≈ 3.75 µM) in [4]; 0.98 µg/mL (≈ 3.75 µM) in test [5]; 0.98 µg/mL (≈ 3.75 µM) in test [6]. For the same compound, the MIC is 0.49 µg/mL (≈ 1.88 µM) in [7]; 0.49 µg/mL (≈ 1.88 µM) in [8]; 0.98 µg/mL (≈ 3.75 µM) in [9]; 1.95 µg/mL (≈ 7.46 µM) in [10]; 0.98 µg/mL (≈ 3.75 µM) in test [11].

Source of the values: patent US20240425464A1, “Substituted Monohydrazides as Potent Antifungal Agents” (University of Kentucky Research Foundation, priority 2023, published 2024).
